One test addresses T1, NDM-1 (Klebsiella pneumoniae, UniProt C7C422).
T1 construct: gene blaNDM-1
The experiment in a line: in vitro meropenem hydrolysis assay ([…] nm), […] enzyme, […] ZnSO4. The test is classed as biochemical.

The target in the next test is T2, VIM-2 (Pseudomonas aeruginosa, UniProt Q9K2N0).
T2 construct: gene blaVIM-2
Described as above. The test is classed as biochemical.

T1 sequence (C7C422 29-270 limits assumed): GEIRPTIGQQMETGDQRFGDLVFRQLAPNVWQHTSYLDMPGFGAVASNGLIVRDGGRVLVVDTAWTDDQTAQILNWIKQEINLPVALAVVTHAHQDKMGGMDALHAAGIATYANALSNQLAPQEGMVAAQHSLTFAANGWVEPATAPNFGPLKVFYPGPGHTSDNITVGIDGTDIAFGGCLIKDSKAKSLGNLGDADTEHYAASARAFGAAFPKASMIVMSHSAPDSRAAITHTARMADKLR

`Nc1ccc(S(=O)(=O)Nc2scnc2C(=O)O)cc1` [MLLB-2201]: the IC50 on NDM-1 stood at 1.8 µM; on VIM-2, 14.5 µM.

A word on the IC50: it is the point on the concentration scale where inhibition reaches its midpoint.

Values taken from article PMC11898565, “Perturbation of Pseudomonas aeruginosa peptidoglycan recycling by anti-folates and design of a dual-action inhibitor” (mBio, 2025).
